Assay results taken from patent US20220298146A1, “HETEROCYCLIC DERIVATIVE AND USE THEREOF” (Transthera Sciences (Nanjing), Inc., priority 2019, published 2022).
Where two headings read alike, the source gives them in different places.

Columns and labels:
H1299 cell pMer = molecular target: T1, H1299 cell pMer (Homo sapiens, UniProt Q12866); experiment: Inhibitory activity on cell pMer (H1299 cells, Human MerMab stimulation, Western Blot); assay type: cell-based; conditions: Human MerMab 200 ng/mL, tested at 0.37, 1.1, 3.3 and 10 nM
T1 construct: endogenous in cells; host or cells: H1299
T1 sequence (Q12866 21-999): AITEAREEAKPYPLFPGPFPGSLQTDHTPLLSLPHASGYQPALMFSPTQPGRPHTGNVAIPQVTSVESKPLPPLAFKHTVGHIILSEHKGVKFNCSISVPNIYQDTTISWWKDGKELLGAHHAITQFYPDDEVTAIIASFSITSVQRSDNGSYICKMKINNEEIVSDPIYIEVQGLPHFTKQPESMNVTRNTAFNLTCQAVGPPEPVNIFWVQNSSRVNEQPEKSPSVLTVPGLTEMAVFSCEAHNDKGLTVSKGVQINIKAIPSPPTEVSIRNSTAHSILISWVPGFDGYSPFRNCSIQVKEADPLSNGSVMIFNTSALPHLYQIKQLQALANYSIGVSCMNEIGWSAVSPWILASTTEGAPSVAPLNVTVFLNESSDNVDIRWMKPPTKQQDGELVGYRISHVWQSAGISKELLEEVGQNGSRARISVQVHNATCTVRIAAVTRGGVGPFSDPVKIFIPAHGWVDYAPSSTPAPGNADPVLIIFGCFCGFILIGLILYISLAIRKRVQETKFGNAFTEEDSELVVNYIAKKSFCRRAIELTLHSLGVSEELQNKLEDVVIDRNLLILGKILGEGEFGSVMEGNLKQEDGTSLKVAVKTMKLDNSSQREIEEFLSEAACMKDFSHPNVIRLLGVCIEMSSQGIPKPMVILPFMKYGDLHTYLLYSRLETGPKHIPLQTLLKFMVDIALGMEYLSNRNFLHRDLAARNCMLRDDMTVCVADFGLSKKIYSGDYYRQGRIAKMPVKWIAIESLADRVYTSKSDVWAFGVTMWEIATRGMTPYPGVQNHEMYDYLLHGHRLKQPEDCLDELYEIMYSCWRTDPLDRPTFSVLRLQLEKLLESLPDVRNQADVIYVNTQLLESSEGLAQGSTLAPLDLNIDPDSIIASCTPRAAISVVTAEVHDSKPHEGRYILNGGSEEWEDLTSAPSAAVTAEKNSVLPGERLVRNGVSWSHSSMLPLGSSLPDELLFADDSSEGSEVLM
Protocol: H1299 is a non-small cell lung cancer cell.
Test samples: the compounds of the present invention, having structures shown above.
Test instruments: protein electrophoresis apparatus (made by Bio Rad), membrane transfer apparatus (made by Bio Rad), exposure apparatus (made by Tanon), and CO2 cell incubator (made by Thermo).
H1299 cells were inoculated into a 6-well plate (containing 10% FBS 1640 medium, 5×10^5 cells per well) and adherently cultivated at 37° C. and 5% CO2 for 18 h. The cells were starved overnight, and compounds with different concentrations were added. The compounds had final concentrations of 0.37 nM, 1.1 nM, 3.3 nM and 10 nM, with DMSO having a final concentration of 1‰. There was a medium containing 10‰ DMSO in the negative control well. The cells were incubated at 37° C. and 5% CO2 for 60 min, and then Human MerMab (R&D, final concentration: 200 ng/mL) was added to each well. The cells were further incubated for 60 min, and then the total protein of the cells was extracted for Western Blot experiment. Gray analysis was performed on the results with Image J software, and IC50 values were calculated with GraphPad 5.0 software. The inhibitory activities of the compounds on cell pMer were detected.

[1] = Beagle PK evaluation experiment; assay type: in vivo; conditions: dog, plasma; for AUC(0-t) / clearance / Vd / half-life / Tmax: dose 1 mg/kg; for clearance: n=3, read-out: Cl_obs iv (clearance rate) (converted); for Vd: n=3, read-out: Vz_obs iv (apparent volume of distribution); for bioavailability: iv/po dose 1/1 mg/kg, n=3, read-out: F % (absolute bioavailability); for Tmax: n=3, median, read-out: Tmax po (time to maximum plasma concentration)
Protocol: Test samples: the compounds of the present invention, prepared according to exemplary methods.
Administration and Sample Collection:
Experimental compounds 11, 12 and 35 were each dissolved in a mixture of 5% DMSO+20% (30% Solutol)+75% saline to prepare solutions. The compound solutions were administrated via intragastric gavage to beagles at a dose of 1.0 mg/kg, respectively. The blood was collected at time points of 0 min, 15 min, 30 min, 1 h, 2 h, 4 h, 6 h, 8 h, 10 h and 24 h.
(§1) Experimental compounds 11, 12 and 35 were each dissolved in a mixture of 5% DMSO+20% (30% Solutol)+75% saline to prepare solutions. The compound solutions were intravenously injected into beagles at a dose of 1.0 mg/kg, respectively. The blood was collected at time points of 0 min, 5 min, 15 min, 30 min, 1 h, 2 h, 4 h, 6 h, 8 h, 10 h and 24 h. […]
as §1, with “compound 17” for “compounds 11, 12”, “compound 37” for “35”, “PEG400+75% (20% Captisol in Water)” for “(30% Solutol)+75% saline”
Experimental compound 18 was dissolved in a mixture of 5% DMA+30% PEG400+65% (20% Captisol in Saline) to prepare a solution. The compound solution was intravenously injected into a beagle at a dose of 1.0 mg/kg. The blood was collected at time points of 0 min, 5 min, 15 min, 30 min, 1 h, 2 h, 4 h, 6 h, 8 h, 10 h and 24 h.
About 1 mL of blood was collected via the upper extremity, and the collected blood was placed in an anticoagulation tube containing EDTA-K2. The blood samples were centrifuged at 1800 g for 5 min at 4° C. to give plasma samples which were prepared within 30 min after blood collection. The plasma samples were stored in a refrigerator at −80° C. before test.
The samples to be tested were taken out from the refrigerator at −80° C., and vortexed for 5 min after naturally thawed at room temperature. 20 μL of plasma samples were each pipetted into a 1.5 mL centrifuge tube, and 200 μL of internal standard working solution (a solution of tolbutamide in methanol) at 100 ng/mL was added. The resulting mixture was mixed well, vortexed for 5 min, and then centrifuged at 12,000 rpm for 5 min. 50 μL of the supernatant was pipetted into a 96-well plate with 150 μL of water per well, and the plate was vortexed for 5 min and mixed well before LC-MS/MS analysis.
The concentrations of test samples were calculated by Analyst 1.6.3 from AB Sciex. Parameters such as mean, standard deviation and coefficient of variation (excluding those output directly by Analyst 1.6.3) were calculated by Microsoft Excel. PK parameters were calculated by Pharsight Phoenix 6.1 software NCA (Tmax was in median).

[2] = iv, n=3, read-out: AUClast iv (area under concentration-time curve for 0-24 h)
[3] = iv, n=3, read-out: tz1/2 iv (terminal half-life) (converted)
[4] = po (gavage), n=3, read-out: AUClast po (area under concentration-time curve for 0-24 h)
[5] = po (gavage), n=3, read-out: tz1/2 po (terminal half-life) (converted)

SMILES | IC50 (H1299 cell pMer) [nM] | AUC(0-t) [1, 2] [ng·h/mL] | clearance ([1]; iv) [mL/min/kg] | Vd ([1]; iv) [L/kg] | half-life [1, 3] [min] | bioavailability [1] [%] | Tmax ([1]; po (gavage)) [h] | AUC(0-t) [1, 4] [ng·h/mL] | half-life [1, 5] [min]
CC(C)n1cc(-c2ccc(F)cc2)c(=O)c(C(=O)Nc2ccc(Oc3ccnc(N)c3Cl)cn2)n1 [Compound 11, N-(5-((2-amino-3-chloropyridin-4-yl)oxy)pyridin-2-yl)-5-(4-fluorophenyl)-1-isopropyl-4-oxo-1,4-dihydropyridazine-3-carboxamide] | 1.1 | 3320 | 4.33 | 5.36 | 900 | 37.3 | 1 | 1360 | 358
CC(C)n1cc(-c2ccc(F)cc2)c(=O)c(C(=O)Nc2ncc(Oc3ccnc(N)c3Cl)cn2)n1 [Compound 12, N-(5-((2-amino-3-chloropyridin-4-yl)oxy)pyrimidin-2-yl)-5-(4-fluorophenyl)-1-isopropyl-4-oxo-1,4-dihydropyridazine-3-carboxamide] | 1.1 | 1530 | 10.8 | 1.04 | 66 | 78 | 0.5 | 1190 | 74.4
CC(C)n1cc(-c2ccc(F)cc2)c(=O)c(C(=O)Nc2ccc(Oc3ccnc(N)c3Cl)nc2)n1 [Compound 13, N-(6-((2-amino-3-chloropyridin-4-yl)oxy)pyridin-3-yl)-5-(4-fluorophenyl)-1-isopropyl-4-oxo-1,4-dihydropyridazine-3-carboxamide] | 3.3 to 10 |  |  |  |  |  |  |  | 
Nc1nccc(Oc2ccc(NC(=O)c3nn(C4CC4)cc(-c4ccc(F)cc4)c3=O)nc2)c1Cl [Compound 17, N-(5-((2-amino-3-chloropyridin-4-yl)oxy)pyridin-2-yl)-1-cyclopropyl-5-(4-fluorophenyl)-4-oxo-1,4-dihydropyridazine-3-carboxamide] | < 1.1 | 3360 | 5 | 3.16 | 448 | 109 | 1 | 3670 | 816
Nc1nccc(Oc2cnc(NC(=O)c3nn(C4CC4)cc(-c4ccc(F)cc4)c3=O)nc2)c1Cl [Compound 18, N-(5-((2-amino-3-chloropyridin-4-yl)oxy)pyrimidin-2-yl)-5-(4-fluorophenyl)-1-cyclopropyl-4-oxo-1,4-dihydropyridazine-3-carboxamide] | 1.1 | 3730 | 4.83 | 0.65 | 92.4 | 29.7 | 1 | 1090 | 120
Nc1nccc(Oc2ccc(NC(=O)c3nn(C4CC4)cc(-c4ccc(F)cc4)c3=O)cn2)c1Cl [Compound 19, N-(6-((2-amino-3-chloropyridin-4-yl)oxy)pyridin-3-yl)-1-cyclopropyl-5-(4-fluorophenyl)-4-oxo-1,4-dihydropyridazine-3-carboxamide] | 10 |  |  |  |  |  |  |  | 
Cn1cc(-c2ccc(F)cc2)c(=O)c(C(=O)Nc2ccc(Oc3ccnc(N)c3Cl)cn2)n1 [Compound 33, N-(5-((2-amino-3-chloropyridin-4-yl)oxy)pyridin-2-yl)-5-(4-fluorophenyl)-1-methyl-4-oxo-1,4-dihydropyridazine-3-carboxamide] | 3.3 |  |  |  |  |  |  |  | 
C=CCn1cc(-c2ccc(F)cc2)c(=O)c(C(=O)Nc2ccc(Oc3ccnc(N)c3Cl)cn2)n1 [Compound 35, 1-allyl-N-(5-((2-amino-3-chloropyridin-4-yl)oxy)pyridin-2-yl)-5-(4-fluorophenyl)-4-oxo-1,4-dihydropyridazine-3-carboxamide] | 0.37 | 4120 | 3.83 | 3.16 | 559 | 50.7 | 1 | 2200 | 241
C=CCn1cc(-c2ccc(F)cc2)c(=O)c(C(=O)Nc2ncc(Oc3ccnc(N)c3Cl)cn2)n1 [Compound 37] | 3.3 | 2600 | 6.83 | 1.07 | 107 | 70.6 | 0.5 | 1830 | 113
C=CCn1cc(-c2ccc(F)cc2)c(=O)c(C(=O)Nc2ccc(Oc3ccnc(N)c3Cl)nc2)n1 [Compound 39, 1-allyl-N-(6-((2-amino-3-chloropyridin-4-yl)oxy)pyridin-3-yl)-5-(4-fluorophenyl)-4-oxo-1,4-dihydropyridazine-3-carboxamide] | 3.3 to 10 |  |  |  |  |  |  |  | 
